Experimental data from patent US7396844B1, “Benzamidine derivatives” (Ajinomoto Co., Inc., priority 1997, dated 2008).
Where a name gives a salt, the structure may show the parent alone. Read-outs that look alike come from different tables or passages of the source.

How the values were obtained:
human thrombin = target: T1, human thrombin (Homo sapiens, UniProt P00734); experiment: Determination of thrombin-inhibiting activity; format: biochemical; settings: for IC50: read-out: Thrombin-inhibiting activity (pIC50) (converted)
T1 construct: human thrombin (a product of SIGMA Co.); purchased SIGMA Co
Experimental: 130 μl of 100 mM Tris-HCl buffer adjusted to pH 8.4 was added to 10 μl of an aqueous solution of a test compound. Then 10 μl of a solution of human thrombin (a product of SIGMA Co.) adjusted to 2 units/ml with Tris-HCl buffer of pH 8.4 was added to the resultant mixture. […] The absorbance was determined and then the initial reaction rate was determined. A control was prepared in the same manner as that described above except that the solution of the compound to be tested was replaced with 10 μl of tris hydrochloride buffer adjusted to pH 8.4.

[1] = target: T2, activated human blood coagulation factor X (Homo sapiens, UniProt P00742); experiment: Determination of activity of inhibiting the activated blood coagulation factor X; format: biochemical; settings: for IC50: read-out: Activity of inhibiting activated blood coagulation factor X (pIC50) (converted)
T2 construct: purchased Enzyme Research Co
T2 sequence (P00742 235-488 limits assumed): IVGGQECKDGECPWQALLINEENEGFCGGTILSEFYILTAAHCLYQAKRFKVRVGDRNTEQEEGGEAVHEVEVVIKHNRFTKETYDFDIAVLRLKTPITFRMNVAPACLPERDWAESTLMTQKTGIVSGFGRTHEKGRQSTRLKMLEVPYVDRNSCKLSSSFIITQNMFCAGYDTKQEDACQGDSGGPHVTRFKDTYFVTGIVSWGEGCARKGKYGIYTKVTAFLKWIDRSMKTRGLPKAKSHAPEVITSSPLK
T2 sequence (P00742 41-179 partner limits assumed): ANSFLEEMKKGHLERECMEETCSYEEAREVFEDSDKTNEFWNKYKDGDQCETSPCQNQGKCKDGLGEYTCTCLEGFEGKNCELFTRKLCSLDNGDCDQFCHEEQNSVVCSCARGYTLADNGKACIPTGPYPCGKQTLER
Experimental: 130 μl of 100 mM Tris-HCl buffer adjusted to pH 8.4 was added to 10 μl of an aqueous solution of a compound to be tested. Then 10 μl of a 0.5 unit/ml solution of activated human blood coagulation factor X (a product of Enzyme Research Co.) in Tris-HCl buffer hydrochloride of pH 8.4 was added to the resultant mixture. After the incubation at room temperature for 10 minutes, 50 μl of a solution of N-benzoyl-L-isoleucyl-L-glutamyl-glycyl-L-arginyl-p-nitroanilide hydrochloride (a product of Peptide Institute, Inc.) adjusted to 0.8 mM with Tris-HCl buffer (pH 8.4) was added thereto. The absorbance was determined and then the initial reaction rate was determined. A control was prepared in the same manner as that described above except that the solution of the compound to be tested was replaced with 10 μl of Tris-HCl buffer adjusted to pH 8.4.

[2] = Table 1, negative logarithm of concentration inhibiting 50% of initial rate, substrate S-2238, Tris-HCl pH 8.4
[3] = Table 1, negative logarithm of concentration inhibiting 50% of initial rate, Tris-HCl pH 8.4, room temperature
[4] = Table 2, same manner as Example 94
[5] = Table 2, same manner as Example 93

| IC50 (human thrombin; [2]) [µM] | IC50 [1, 3] [µM] | SMILES | also measured |
| --- | --- | --- | --- |
| 398 | 0.398 | N=C(N)c1ccc(C(=S)NCCOc2cccc(C(=N)N)c2)cc1 [Compound of Ex. 1, N-[2-(3-amidinophenoxy)ethyl]-4-amidinobenzthioamide bistrifluoroacetate] |  |
|  | 0.0251 | CN(C)C(=O)c1ccc(C(=O)NCCOc2cccc(C(=N)N)c2)cc1 [Compound of Ex. 3, N-[2-(3-amidinophenoxy)ethyl]-4-(N,N-dimethylcarbamoyl)benzamide trifluoroacetate] |  |
|  | 0.0794 | CN(C)C(=N)c1ccc(C(=O)NCCOc2cccc(C(=N)N)c2)cc1 [Compound of Ex. 7, N-[2-(3-amidinophenoxy)ethyl]-4-(N,N-dimethylamidino)benzamide bistrifluoroacetate] |  |
| 50.1 | 0.02 | N=C(N)c1cccc(OCCNC(=O)c2ccc(C(=O)N3CCCC3)cc2)c1 [Compound of Ex. 9, N-[2-(3-amidinophenoxy)ethyl]-4-(1-pyrrolidinecarbonyl)benzamide trifluoroacetate] |  |
| 126 | 0.1 | N=C(N)c1cccc(OCCNC(=O)c2ccc(/C=C/c3ccncc3)cc2)c1 [Compound of Ex. 10, N-[2-(3-amidinophenoxy)ethyl]-4-[(E)-2-(pyridine-4-yl)vinyl]benzamide bistrifluoroacetate] |  |
| 20 | 0.0501 | N=C(N)c1cccc(OCCNC(=O)c2ccc(CCc3ccncc3)cc2)c1 [Compound of Ex. 14, N-[2-(3-amidinophenoxy)ethyl]-4-[2-(pyridine-4-yl)ethyl]benzamide bistrifluoroacetate] |  |
| 39.8 | 0.0501 | N=C(N)c1cccc(OCCNC(=O)c2ccc(N3CCCC3)cc2)c1 [Compound of Ex. 18, N-[2-(3-amidinophenoxy)ethyl]-4-(pyrrolidine-1-yl)benzamide trifluoroacetate] |  |
| 50.1 | 0.251 | N=C(N)c1cccc(OCCNC(=O)c2ccc(CC3CCNCC3)cc2)c1 [Compound of Ex. 43, N-[2-(3-amidinophenoxy)ethyl]-4-[(piperidine-4-yl)methyl]benzamide bistrifluoroacetate] |  |
| 25.1 | 0.0501 | CCOC(=O)C[C@H](COc1cccc(C(=N)N)c1)NC(=O)c1ccc(-c2ccccc2)cc1 [Compound of Ex. 54, ethyl (3R)-3-[(biphenyl-4-carbonyl)amino]-4-(3-amidinophenoxy)butyrate trifluoroacetate] |  |
| > 1000 | 0.0158 | CN(C)C(=O)c1ccc(C(=O)N[C@@H](COc2cccc(C(=N)N)c2)CC(=O)O)cc1 [Compound of Ex. 56, (3R)-4-(3-amidinophenoxy)-3-[(4-dimethylcarbamoylbenzoyl)amino]butyric acid trifluoroacetate] |  |
| > 1000 | 0.0126 | N=C(N)Nc1ccc(C(=O)N[C@@H](COc2cccc(C(=N)N)c2)CC(=O)O)cc1 [Compound of Ex. 57, (3R)-4-(3-amidinophenoxy)-3-[(4-guanidinobenzoyl)amino]butyric acid bistrifluoroacetate] |  |
| > 1000 | 0.0251 | N=C(N)c1cccc(OC[C@@H](CC(=O)O)NC(=O)c2ccc(N3CCCC3)cc2)c1 [Compound of Ex. 58, (3R)-4-(3-amidinophenoxy)-3-[4-(pyrrolidine-1-yl)benzoylamino]butyric acid trifluoroacetate] |  |
| 15.8 | 0.0398 | CCOC(=O)C[C@H](COc1cccc(C(=N)N)c1)NC(=O)c1ccc(N2CCCC2)cc1 [Compound of Ex. 59, ethyl (3R)-4-(3-amidinophenoxy)-3-[4-(pyrrolidine-1-yl)benzoylamino]butyrate trifluoroacetate] |  |
|  |  | CC(=N)N1CCC(Oc2ccc(C(=O)N[C@@H](COc3cccc(C(=N)N)c3)CC(=O)O)cc2)CC1.O=C(O)C(F)(F)F.O=C(O)C(F)(F)F [Compound of Ex. 62, (3R)-4-(3-amidinophenoxy)-3-[4-(1-acetimidoyl-4-piperidyloxy)benzoylamino]butylic acid bistrifluoroacetate] | Thrombin-inhibiting activity (pIC50) (human thrombin; [2]): <3.3; Activity of inhibiting activated blood coagulation factor X (pIC50) [1, 3]: 7.4 |
|  | 0.0631 | CN(C)C(=O)c1ccc(C(=O)CCCOc2cccc(C(=N)N)c2)cc1 [Compound of Ex. 64, 4-[4-(3-amidinophenoxy)butyryl]-N,N-dimethylbenzamide trifluoroacetate] |  |
| 316 | 0.316 | N=C(N)c1ccc(NC(=O)CCCOc2cccc(C(=N)N)c2)cc1 [Compound of Ex. 67, 4-(3-amidinophenoxy)-N-(4-amidinophenyl)butyramide bistrifluoroacetate] |  |
|  |  | N=C(N)c1ccc(C(=O)Nc2cccc(COc3cccc(C(=N)N)c3)c2)cc1.O=C(O)C(F)(F)F.O=C(O)C(F)(F)F [Compound of Ex. 69, N-[3-(3-amidinophenoxymethyl)]phenyl-4-amidinobenzamide bistrifluoroacetate] | Thrombin-inhibiting activity (pIC50) (human thrombin; [2]): 4.5; Activity of inhibiting activated blood coagulation factor X (pIC50) [1, 3]: 6.6 |
|  |  | CCOP(=O)(O)c1ccc(S(=O)(=O)N[C@H](COc2cccc(C(=N)N)c2)Cc2ccc(OC3CCN(C(C)=N)CC3)cc2)cc1.O=C(O)C(F)(F)F.O=C(O)C(F)(F)F [Compound of Ex. 73] | Thrombin-inhibiting activity (pIC50) (human thrombin; [2]): 3.9; Activity of inhibiting activated blood coagulation factor X (pIC50) [1, 3]: 8.1 |
|  |  | CC(=N)N1CCC(Oc2ccc(C[C@@H](COc3cccc(C(=N)N)c3)NS(=O)(=O)c3ccc(P(=O)(O)O)cc3)cc2)CC1.O=C(O)C(F)(F)F.O=C(O)C(F)(F)F [Compound of Ex. 74] | Thrombin-inhibiting activity (pIC50) (human thrombin; [2]): <3.7; Activity of inhibiting activated blood coagulation factor X (pIC50) [1, 3]: 7.6 |
| 25.1 | 0.02 | CC(=N)N1CCC(Oc2ccc(C(=O)NCCOc3cc(C(=N)N)ccc3CC(=O)C(=O)O)cc2)CC1 [Compound of Ex. 79, 3-[4-amidino-2-[2-[4-(1-acetimidoyl-4-piperidyloxy)benzoylamino]ethoxy]phenyl]-2-oxopropionic acid bistrifluoroacetate] |  |
| 39.8 | 0.0126 | CN(C)C(=O)c1ccc(C(=O)NCCOc2cc(C(=N)N)ccc2CC(=O)C(=O)O)cc1 [Compound of Ex. 80, 3-[4-amidino-2-[2-[4-(dimethylcarbamoyl)benzoylamino]ethoxy]phenyl]-2-oxo-propionic acid trifluoroacetate] |  |
| 31.6 | 0.0794 | N=C(N)c1ccc(CC(=O)C(=O)O)c(OCCNC(=O)c2ccc(CC3CCNCC3)cc2)c1 [Compound of Ex. 81, 3-[4-amidino-2-[2-[4-(4-piperidylmethyl)benzoylamino]ethoxy]phenyl]-2-oxopropionic acid bistrifluoroacetate] |  |
| 6.31 | 0.0251 | N=C(N)c1ccc(CC(=O)C(=O)O)c(OCCNC(=O)c2ccc(N3CCCC3)cc2)c1 [Compound of Ex. 82, 3-[4-amidino-2-[2-[4-(pyrrolidine-1-yl)benzoylamino]ethoxy]phenyl]-2-oxopropionic acid trifluoroacetate] |  |
| > 1000 | 0.158 | N=C(N)c1ccc(C(=O)N[C@@H](CCC(=O)O)COc2cccc(C(=N)N)c2)cc1 [Compound of Ex. 83, (4S)-4-(4-amidinobenzoylamino)-5-(3-amidinophenoxy)pentanoic acid bistrifluoroacetate] |  |
| > 251 | 0.0398 | N=C(N)c1ccc(C(=O)N[C@@H](COc2cccc(C(=N)N)c2)Cc2ccc(C(=O)O)cc2)cc1 [Compound of Ex. 90, 4-[(2R)-2-(4-amidinobenzoylamino)-3-(3-amidinophenoxy)propyl]benzoic acid bistrifluoroacetate] |  |
| > 1000 | 0.0501 | N=C(N)c1ccc(C(=O)N[C@H](CCOc2cccc(C(=N)N)c2)C(=O)O)cc1 [Compound of Ex. 92, (2R)-2-(4-amidinobenzoylamino)-4-(3-amidinophenoxy)butanoic acid bistrifluoroacetate] |  |
|  |  | N=C(N)c1cccc(OCCNC(=O)c2cccc(C(=N)N)c2)c1 [Compound of Ex. 96, N-[2-(3-amidinophenoxy)ethyl]-3-amidinobenzamide bistrifluoroacetate] | IC50 (human thrombin; [4]): > 1000 µM; IC50 [1, 5]: 1.58 µM |
|  |  | N=C(N)c1ccc(C(=O)N(CCOc2cccc(C(=N)N)c2)Cc2ccccc2)cc1 [Compound of Ex. 114, N-[2-(3-amidinophenoxy)ethyl]-N-phenylmethyl-4-amidinobenzamide bistrifluoroacetate] | IC50 (human thrombin; [4]): 79.4 µM; IC50 [1, 5]: 0.0501 µM |
|  |  | N=C(N)c1ccc(C(=O)N[C@@H](COc2cccc(C(=N)N)c2)CC(=O)O)cc1 [Compound of Ex. 119, (3R)-3-(4-amidinobenzoylamino)-4-(3-amidinophenoxy)butanoic acid bistrifluoroacetate] | IC50 (human thrombin; [4]): > 1000 µM; IC50 [1, 5]: 0.0251 µM |
